Experimental data: US10154992B2, “Compounds and methods for treating HIV infection” (THE REGENTS OF THE UNIVERSITY OF CALIFORNIA, priority 2016, dated 2018)
Read-outs that look alike come from different tables or passages of the source.

Tests used:
[1] = tested on: HIV-1 provirus in U1 cells; test: U1 activation (latency) assay, p24 ELISA; type: cell-based; settings: for IC50: Human immunodeficiency virus 1
How it was run: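 PHA-activated U1 cells (latent integrated HIV-1 provirus, 250,000/well) treated with compound at final 1 to 10,000 nM for 3 days; virus production measured by p24 ELISA of cell-free supernatant. Cell viability assessed by MTT in parallel cultures.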

[2] = MTT cell viability in Jurkat replication assay; type: cell-based; settings: human, Jurkat (E6-1) cells, pH 7.4; Jurkat infectivity assay; read-out: TC50 (MTT cell viability)
Method: Virus spreading assay. Jurkat (E6-1) cells (NIH AIDS Reagent Program) were cultured in RPMI media supplemented with 25 mM HEPES pH 7.4, 10% heat-inactivated fetal calf serum (Hyclone, Waltham Mass.), and 1% penicillin/streptomycin. 2.5×10^5 Jurkat cells were inoculated with 250 pg p24 in 250 μl media in a 96-well flat bottom polystyrene cell culture microplate. Input virus was removed after 18 hours via washing cells phosphate-buffered saline (PBS). Cells were resuspended in 250 μl of media containing compounds at the described concentrations. Cells were incubated at 37° C., 5% CO2 and supernatant samples were removed every 48 hours and replaced with fresh media containing the compounds. Viral replication was quantified using ELISA to quantify p24 viral capsid protein in the culture supernatant. Mouse monoclonal and rabbit polyclonal α-p24 antibodies used in the ELISA were obtained from the NIH AIDS Reagent Program. Toxicity was monitored using the MTT cell viability assay (Mosmann, T. (1983). J Immunol Methods 65, 55-63).

[3] = tested on: A7854G mutant (RRE) virus; test: Replication of RRE A7854G resistant virus; type: cell-based, HIV
Caco-2 permeability = type: in vitro ADME; settings: human
From the text: We next evaluated analogs 2b, 2f, 4a, and 4e in a panel of standard in vitro ADME assays to assess drug-like properties and the potential for efficacy in animals.

For `NC(=O)c1cc2c(-c3ccc4c(c3)CCO4)cncc2s1` [Compound 4e, 4-(2,3-dihydro-1-benzofuran-5-yl)thieno[2,3-c]pyridine-2-carboxamide], the “potency in the U1 assay” value [1] was “low-nM potency”, the IC50 ([1]; Table 2, read-out: U1 cell IC50) was under 100 nM and the IC50 ([1]; read-out: IC50 in the U1 assay) was 9 nM. It also gave a CC50 [2] of under 40000 nM, an IC50 ([3]; Human immunodeficiency virus 1, read-out: IC50 A7854G mutant) of 218 nM and an IC50 ([3]; Human immunodeficiency virus 1, read-out: IC50 resistant-virus) of 5.1 nM. It also gave a Papp (Caco-2 permeability) of 66.6 ×10⁻⁶ cm/s.
